Assay results taken from ChEMBL document CHEMBL1140768, “Constituents of Brazilian red propolis and their preferential cytotoxic activity against human pancreatic PANC-1 cancer cell line in nutrient-deprived condition” (2008).

Tested on: PANC-1
Assay: Cytotoxicity against human PANC1 cells in nutrient deprived medium after 24 hrs
Format: functional

| SMILES | CD100 |
| --- | --- |
| COc1cc(O)ccc1[C@H]1COc2cc(O)ccc2C1 | >100 µM |
| O=C1c2ccc(O)cc2O[C@H](c2ccccc2)[C@H]1O | >100 µM |
| O=C(c1ccc(O)cc1O)[C@@H](O)Cc1ccc(O)cc1 | >100 µM |
| C=C[C@@H](c1ccccc1)c1cc(O)c(OC)cc1OC | >100 µM |
| COc1ccc([C@H]2COc3cc(O)ccc3C2)c(O)c1 | >100 µM |
| COc1ccc([C@H]2COc3cc(O)ccc3C2=O)c(O)c1 | >100 µM |
| COc1ccc2c(c1O)O[C@@H]1c3ccc(O)cc3OC[C@H]21 | 50 µM |
| COc1ccc2c(C)c(-c3ccc(O)cc3O)oc2c1 | 50 µM |
| COc1ccc2c(c1)O[C@H]1c3ccc(O)c(O)c3OC[C@@H]21 | 25 µM |
| COc1cc(O)ccc1C(=O)/C=C/c1ccc(O)cc1 | >100 µM |
| COc1ccc([C@H]2COc3cc(O)ccc3C2=O)c(OC)c1O | >100 µM |
| O=C1c2ccc(O)cc2OC1(O)Cc1ccc(O)cc1 (centres undefined) | >100 µM |
| COc1cc2c(cc1O)O[C@H](c1ccccc1)[C@@H](O)C2=O | >100 µM |
| COc1ccc([C@H]2COc3cc(OC)ccc3C2)c(O)c1 | 25 µM |
| CCO[C@@]12COc3cc(O)ccc3[C@@H]1Oc1cc(OC)ccc12 | >100 µM |
| O=C1C[C@@H](c2ccccc2)Oc2cc(O)c(O)c(O)c21 | >100 µM |
| COc1cc2c(cc1O)O[C@H](c1ccccc1)CC2=O | 50 µM |
| O=C1C[C@@H](c2ccccc2)Oc2cc(O)ccc21 | >100 µM |
| COc1ccc(-c2coc3cc(O)cc(O)c3c2=O)c(O)c1 | >100 µM |
| COc1ccc([C@H]2COc3cc(O)cc(O)c3C2=O)c(O)c1 | >100 µM |
| COc1ccc2c(c1)O[C@H]1c3ccc(O)c(OC)c3OC[C@@H]21 | >100 µM |
| COc1ccc2c(c1)O[C@@H]1c3ccc(O)cc3OC[C@H]21 | 50 µM |

| SMILES | CD100 |
| --- | --- |
| O=C(/C=C/c1ccccc1)c1ccc(O)cc1O [2',4'-DIHYDROXYCHALCONE] | >100 µM |
| COc1ccc([C@H]2OC[C@H]3[C@@H]2CO[C@@H]3c2ccc(OC)c(OC)c2)cc1OC [(+)-EUDESMIN] | >100 µM |
| COc1cc([C@@H]2OC[C@@H]3[C@H]2CO[C@H]3c2ccc(O)c(OC)c2)ccc1O [(+)-PINORESINOL] | >100 µM |
| COc1c(O)cc2oc(-c3ccccc3)c(O)c(=O)c2c1O [ALNUSIN] | >100 µM |
| COc1c(O)cc2c(c1O)C(=O)[C@H](O)[C@@H](c1ccccc1)O2 [ALNUSTINOL] | >100 µM |
| COc1cc(C[C@H]2C(=O)OC[C@@H]2Cc2ccc(OC)c(OC)c2)ccc1O [ARCTIGENIN] | 1 µM |
| COc1ccc(-c2coc3cc(O)cc(O)c3c2=O)cc1 [BIOCHANIN] | >100 µM |
| COc1ccc(-c2coc3cc(O)ccc3c2=O)cc1O [CALYCOSIN] | >100 µM |
| O=c1c(-c2ccc(O)cc2)coc2cc(O)ccc12 [DAIDZEIN] | >100 µM |
| COc1c(O)cc2c(c1O)C(=O)C[C@@H](c1ccccc1)O2 [DIHYDROOROXYLIN A] | >100 µM |
| O=c1[nH]cc(F)c(=O)[nH]1 [FLUOROURACIL] | >100 µM |
| COc1ccc(-c2coc3cc(O)ccc3c2=O)cc1 [FORMONONETIN] | >100 µM |
| O=C1c2ccc(O)cc2O[C@H](c2ccc(O)cc2)[C@H]1O [GARBANZOL] | >100 µM |
| O=C(/C=C/c1ccc(O)cc1)c1ccc(O)cc1O [ISOLIQUIRITIGENIN] | >100 µM |
| O=C1C[C@@H](c2ccc(O)cc2)Oc2cc(O)ccc21 [LIQUIRTIGENIN] | >100 µM |
| COc1ccc([C@H]2COc3cc(O)ccc3C2)c(OC)c1O [MUCRONULATOL] | >100 µM |
| O=C1C[C@@H](c2ccc(O)cc2)Oc2cc(O)cc(O)c21 [NARINGENIN] | >100 µM |
| CC(=O)O[C@H]1C(=O)[C@@]2(C)[C@H]([C@H](OC(=O)c3ccccc3)[C@]3(O)C[C@H](OC(=O)[C@H](O)[C@@H](NC(=O)c4ccccc4)c4ccccc4)C(C)=C1C3(C)C)[C@]1(OC(C)=O)CO[C@@H]1C[C@@H]2O [PACLITAXEL] | >100 µM |
| COc1ccc(-c2coc3cc(O)cc(O)c3c2=O)cc1O [PRATENSEIN] | >100 µM |
| COc1cc2c(cc1OC)[C@@H]1COc3cc(O)ccc3[C@@H]1O2 [SECUNDIFLOROL I] | >100 µM |
| COc1cc([C@H]2OC[C@H]3[C@@H]2CO[C@@H]3c2cc(OC)c(O)c(OC)c2)cc(OC)c1O [SYRINGARESINOL] | >100 µM |
| COc1ccc(-c2coc3cc(O)ccc3c2=O)c(O)c1 [XENOGNOSIN B] | >100 µM |
